In experiment [1] the target is ABL2 (human) (UniProt P42684). Put plainly: Caliper, Mobility shift assay off-chip.
The target in experiment [2] is PDGFRA (human) (UniProt P16234). As to the kind of experiment: Caliper, Mobility shift assay off-chip.
In experiment [3] the target is PRKAA2 (human) (UniProt P54646). As to the kind of experiment: Caliper, Mobility shift assay off-chip.
Experiment [4] concerns the target BRAF (human) (UniProt P15056). Put plainly: ELISA. A general note: ELISA stands for enzyme-linked immunosorbent assay.
Experiment [5] addresses RAF1 (human) (UniProt P04049). As to the kind of experiment: ELISA.
Experiment [6] deals with FGFR2 (human) (UniProt P21802). Put plainly: Caliper, Mobility shift assay off-chip.
Experiment [7] has as its target AURKA (human) (UniProt O14965). Put plainly: Caliper, Mobility shift assay off-chip.
Experiment [8] addresses CSF1R (human) (UniProt P07333). As to the kind of experiment: Caliper, Mobility shift assay off-chip.
The target in experiment [9] is DDR1 (human) (UniProt Q08345). Put plainly: Caliper, Mobility shift assay off-chip.
Experiment [10] deals with DDR2 (human) (UniProt Q16832). Put plainly: Caliper, Mobility shift assay off-chip.
Experiment [11] has as its target EPHA6 (human) (UniProt Q9UF33). Put plainly: Caliper, Mobility shift assay off-chip.
Experiment [12] addresses HIPK4 (human) (UniProt Q8NE63). As to the kind of experiment: Caliper, Mobility shift assay off-chip.
For experiment [13], the target named is MAPK14 (human) (UniProt Q16539). Put plainly: Caliper, Mobility shift assay off-chip.
Experiment [14] addresses MUSK (human) (UniProt O15146). Put plainly: Caliper, Mobility shift assay off-chip.
For experiment [15], the target named is PDGFRB (human) (UniProt P09619). Put plainly: Caliper, Mobility shift assay off-chip.
Sequence of PDGFRB (human) (P09619 whole entry, looked up): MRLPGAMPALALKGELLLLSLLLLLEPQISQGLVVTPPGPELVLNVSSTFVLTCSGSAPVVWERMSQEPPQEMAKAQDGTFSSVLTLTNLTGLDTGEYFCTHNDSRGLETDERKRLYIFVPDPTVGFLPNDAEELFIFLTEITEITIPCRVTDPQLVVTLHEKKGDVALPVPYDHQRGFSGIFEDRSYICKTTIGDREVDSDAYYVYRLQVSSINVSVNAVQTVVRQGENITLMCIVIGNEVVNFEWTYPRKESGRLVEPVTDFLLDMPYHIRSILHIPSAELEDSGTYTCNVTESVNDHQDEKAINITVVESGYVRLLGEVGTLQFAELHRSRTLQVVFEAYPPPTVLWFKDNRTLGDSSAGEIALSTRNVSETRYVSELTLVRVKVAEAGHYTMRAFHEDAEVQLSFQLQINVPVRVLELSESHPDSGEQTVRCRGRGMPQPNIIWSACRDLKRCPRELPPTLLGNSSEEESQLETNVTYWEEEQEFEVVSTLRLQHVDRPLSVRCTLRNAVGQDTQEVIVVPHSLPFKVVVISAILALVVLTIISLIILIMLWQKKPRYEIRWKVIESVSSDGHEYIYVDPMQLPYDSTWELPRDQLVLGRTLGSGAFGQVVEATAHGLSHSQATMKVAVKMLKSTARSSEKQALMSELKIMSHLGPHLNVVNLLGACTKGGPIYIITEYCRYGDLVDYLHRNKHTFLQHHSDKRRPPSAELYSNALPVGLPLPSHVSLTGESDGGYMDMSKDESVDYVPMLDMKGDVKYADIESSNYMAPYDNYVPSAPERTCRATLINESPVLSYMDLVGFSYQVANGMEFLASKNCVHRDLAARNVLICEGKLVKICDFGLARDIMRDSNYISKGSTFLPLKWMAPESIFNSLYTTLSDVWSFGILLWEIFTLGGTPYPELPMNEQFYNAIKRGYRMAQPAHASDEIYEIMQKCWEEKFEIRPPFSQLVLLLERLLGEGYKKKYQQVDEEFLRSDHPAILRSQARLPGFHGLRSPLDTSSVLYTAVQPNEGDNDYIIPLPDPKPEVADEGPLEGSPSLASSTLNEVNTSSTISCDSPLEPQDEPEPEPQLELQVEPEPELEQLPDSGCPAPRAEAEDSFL
The target in experiment [16] is PRKAA1 (human) (UniProt Q13131). Put plainly: Caliper, Mobility shift assay off-chip.
Experiment [17] addresses MAP2K3 (human) (UniProt P46734). Put plainly: ELISA.
In experiment [18] the target is MAP2K6 (human) (UniProt P52564). Put plainly: ELISA.

What is called Ki is the dissociation constant of the complex between target and ligand, obtained from inhibition or displacement.

Sequence of PRKAA2 (human) (P54646 whole entry, looked up): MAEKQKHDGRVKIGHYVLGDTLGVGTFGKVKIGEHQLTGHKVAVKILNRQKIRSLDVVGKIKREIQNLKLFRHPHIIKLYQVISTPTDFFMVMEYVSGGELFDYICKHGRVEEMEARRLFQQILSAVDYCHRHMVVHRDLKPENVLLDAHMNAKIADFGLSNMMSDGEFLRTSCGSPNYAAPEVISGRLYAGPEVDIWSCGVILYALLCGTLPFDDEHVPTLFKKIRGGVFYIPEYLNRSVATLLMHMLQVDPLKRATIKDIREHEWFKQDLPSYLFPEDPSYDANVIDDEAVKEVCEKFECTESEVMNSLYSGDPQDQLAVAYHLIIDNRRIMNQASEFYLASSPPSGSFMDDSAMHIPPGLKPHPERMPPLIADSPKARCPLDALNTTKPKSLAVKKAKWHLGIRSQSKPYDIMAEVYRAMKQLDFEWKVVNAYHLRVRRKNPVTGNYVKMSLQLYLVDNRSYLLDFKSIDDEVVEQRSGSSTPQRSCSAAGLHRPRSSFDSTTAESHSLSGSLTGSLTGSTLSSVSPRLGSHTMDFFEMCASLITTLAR
Sequence of ABL2 (human) (P42684 whole entry, looked up): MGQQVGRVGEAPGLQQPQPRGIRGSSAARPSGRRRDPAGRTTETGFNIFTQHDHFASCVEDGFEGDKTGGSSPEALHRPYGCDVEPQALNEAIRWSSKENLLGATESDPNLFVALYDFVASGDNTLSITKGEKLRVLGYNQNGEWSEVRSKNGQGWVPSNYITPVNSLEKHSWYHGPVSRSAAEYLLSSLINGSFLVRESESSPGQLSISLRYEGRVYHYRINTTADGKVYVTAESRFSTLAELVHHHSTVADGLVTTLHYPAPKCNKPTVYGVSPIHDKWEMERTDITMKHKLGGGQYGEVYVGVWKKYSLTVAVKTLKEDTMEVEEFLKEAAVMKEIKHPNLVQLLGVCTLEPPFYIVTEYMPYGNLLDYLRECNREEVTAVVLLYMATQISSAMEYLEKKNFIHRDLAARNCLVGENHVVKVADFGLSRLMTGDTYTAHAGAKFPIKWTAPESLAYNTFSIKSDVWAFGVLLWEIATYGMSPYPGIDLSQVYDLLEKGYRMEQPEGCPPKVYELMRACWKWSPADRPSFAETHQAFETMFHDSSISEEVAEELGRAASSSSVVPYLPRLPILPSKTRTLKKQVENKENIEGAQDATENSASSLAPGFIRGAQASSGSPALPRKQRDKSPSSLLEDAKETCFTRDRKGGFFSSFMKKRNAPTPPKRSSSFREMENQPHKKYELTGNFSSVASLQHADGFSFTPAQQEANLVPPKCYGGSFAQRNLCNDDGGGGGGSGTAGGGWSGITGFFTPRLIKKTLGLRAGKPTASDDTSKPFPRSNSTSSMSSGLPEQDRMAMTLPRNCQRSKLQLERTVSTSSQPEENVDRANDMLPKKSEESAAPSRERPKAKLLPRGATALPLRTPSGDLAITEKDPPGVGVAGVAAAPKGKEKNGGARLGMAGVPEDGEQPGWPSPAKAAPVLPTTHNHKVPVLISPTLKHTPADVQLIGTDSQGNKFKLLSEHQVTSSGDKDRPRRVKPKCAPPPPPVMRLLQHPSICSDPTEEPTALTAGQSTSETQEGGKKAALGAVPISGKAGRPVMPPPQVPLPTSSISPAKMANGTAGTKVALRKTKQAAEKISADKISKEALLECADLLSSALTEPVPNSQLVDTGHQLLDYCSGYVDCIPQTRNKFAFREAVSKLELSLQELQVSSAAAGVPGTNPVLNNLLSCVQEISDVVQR
Sequence of HIPK4 (human) (Q8NE63 whole entry, looked up): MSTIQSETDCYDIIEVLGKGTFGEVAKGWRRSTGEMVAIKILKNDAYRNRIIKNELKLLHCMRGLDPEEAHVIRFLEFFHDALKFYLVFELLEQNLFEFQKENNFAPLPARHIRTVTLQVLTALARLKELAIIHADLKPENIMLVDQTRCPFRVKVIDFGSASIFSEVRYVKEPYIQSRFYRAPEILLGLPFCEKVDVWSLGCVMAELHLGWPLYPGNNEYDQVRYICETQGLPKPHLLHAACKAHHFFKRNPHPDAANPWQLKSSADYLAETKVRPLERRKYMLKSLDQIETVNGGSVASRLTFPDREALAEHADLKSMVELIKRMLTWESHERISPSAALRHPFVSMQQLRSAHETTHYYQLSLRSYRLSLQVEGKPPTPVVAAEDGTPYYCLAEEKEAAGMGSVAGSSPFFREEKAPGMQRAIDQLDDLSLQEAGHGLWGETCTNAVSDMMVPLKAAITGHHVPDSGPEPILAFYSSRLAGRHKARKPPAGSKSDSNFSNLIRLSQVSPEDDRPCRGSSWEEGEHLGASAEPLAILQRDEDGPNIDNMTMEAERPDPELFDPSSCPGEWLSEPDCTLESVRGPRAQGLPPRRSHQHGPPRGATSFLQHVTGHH
Sequence of MUSK (human) (O15146 whole entry, looked up): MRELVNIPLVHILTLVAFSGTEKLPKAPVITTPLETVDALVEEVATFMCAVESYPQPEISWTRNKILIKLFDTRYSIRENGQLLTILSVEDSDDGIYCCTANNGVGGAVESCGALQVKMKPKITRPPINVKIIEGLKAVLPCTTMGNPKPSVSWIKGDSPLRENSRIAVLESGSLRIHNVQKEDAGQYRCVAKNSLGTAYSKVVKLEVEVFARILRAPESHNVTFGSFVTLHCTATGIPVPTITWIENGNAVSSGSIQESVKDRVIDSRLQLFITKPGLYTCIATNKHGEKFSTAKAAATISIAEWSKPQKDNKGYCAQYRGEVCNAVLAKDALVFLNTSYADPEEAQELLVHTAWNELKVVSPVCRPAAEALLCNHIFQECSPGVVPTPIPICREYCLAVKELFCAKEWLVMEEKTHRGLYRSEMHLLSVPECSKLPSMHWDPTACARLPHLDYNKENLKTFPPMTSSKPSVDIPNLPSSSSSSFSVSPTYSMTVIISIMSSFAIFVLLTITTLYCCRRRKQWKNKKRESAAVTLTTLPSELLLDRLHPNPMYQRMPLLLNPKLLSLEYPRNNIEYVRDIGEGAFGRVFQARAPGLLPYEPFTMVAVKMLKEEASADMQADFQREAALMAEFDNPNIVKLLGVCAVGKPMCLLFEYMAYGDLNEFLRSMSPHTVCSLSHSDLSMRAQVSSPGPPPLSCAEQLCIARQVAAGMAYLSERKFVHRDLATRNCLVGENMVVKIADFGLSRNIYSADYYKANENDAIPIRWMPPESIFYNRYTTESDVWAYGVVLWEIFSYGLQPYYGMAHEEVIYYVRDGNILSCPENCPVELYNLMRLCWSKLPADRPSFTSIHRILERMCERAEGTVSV
Sequence of RAF1 (human) (P04049 whole entry, looked up): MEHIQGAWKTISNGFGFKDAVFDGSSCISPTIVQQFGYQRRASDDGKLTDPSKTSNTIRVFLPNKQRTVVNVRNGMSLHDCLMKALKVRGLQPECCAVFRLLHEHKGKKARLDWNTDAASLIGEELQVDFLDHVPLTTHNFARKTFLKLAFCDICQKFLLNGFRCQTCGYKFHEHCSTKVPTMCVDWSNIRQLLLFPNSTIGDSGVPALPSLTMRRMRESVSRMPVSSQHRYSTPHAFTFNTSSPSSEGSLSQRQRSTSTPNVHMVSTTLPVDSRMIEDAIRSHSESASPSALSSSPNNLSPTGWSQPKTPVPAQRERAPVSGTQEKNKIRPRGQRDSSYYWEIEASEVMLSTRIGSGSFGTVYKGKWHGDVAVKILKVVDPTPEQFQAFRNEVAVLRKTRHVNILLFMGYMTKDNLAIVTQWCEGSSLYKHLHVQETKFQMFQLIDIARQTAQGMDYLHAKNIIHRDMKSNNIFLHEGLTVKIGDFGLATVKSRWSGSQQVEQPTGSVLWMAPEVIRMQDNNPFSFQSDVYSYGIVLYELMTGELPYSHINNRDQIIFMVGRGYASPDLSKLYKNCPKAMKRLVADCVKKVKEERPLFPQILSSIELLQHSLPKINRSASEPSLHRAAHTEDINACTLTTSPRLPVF

Consider `Cc1ccc(F)c(NC(=O)Nc2ccc(-c3cccc4[nH]nc(N)c34)cc2)c1`, for which the inhibition constant (Ki) in experiment [1] is 5000 nM; in experiment [2], 2.76 nM; in [3] it was 1670 nM; in [4], 5000 nM; in experiment [5], 5000 nM.

As for `Cc1cc2c(F)c(Oc3ncnn4cc(OC[C@@H](C)O)c(C)c34)ccc2[nH]1`, the Ki in experiment [6] is 18.1 nM.

With `COc1cc2nccc(Oc3ccc(NC(=O)Nc4cc(C)on4)c(Cl)c3)c2cc1OC`, the Ki in experiment [1] came out at 52.5 nM; in experiment [7] it was 86.5 nM; in [8] it was 45.8 nM; in experiment [9] it was 52 nM; in experiment [10], 1.95 nM; in experiment [11], 3.14 nM. For the same compound, the Ki amounted to 42.9 nM in experiment [12]; 266 nM in experiment [13]; 291 nM in [14]; 1.4 nM in [15]; 1500 nM in [16]; 1500 nM in [3]. Moreover, the figures for the Ki in experiment [17] and in experiment [18] were 272 nM and 302 nM, respectively.

(Values after the kinase profiling compilation of Christmann-Franck et al. (2016).)
